Source: the NIST ThermoML archive (doi:10.1021/acs.jced.5b00592)
Numbers after ± are expanded uncertainties.

Conditions: 101.33 kPa, Liquid, Vibrating tube method

SMILES | mass density (288.15 K) [kg/m3] | mass density (293.15 K) [kg/m3] | mass density (298.15 K) [kg/m3] | mass density (303.15 K) [kg/m3] | mass density (308.15 K) [kg/m3] | mass density (313.15 K) [kg/m3] | mass density (318.15 K) [kg/m3] | mass density (323.15 K) [kg/m3] | mass density (328.15 K) [kg/m3] | mass density (333.15 K) [kg/m3] | mass density (338.15 K) [kg/m3] | mass density (343.15 K) [kg/m3] | mass density (348.15 K) [kg/m3] | mass density (353.15 K) [kg/m3]
CCCCCCCCCCCCn1cc[n+](C)c1.O=S(=O)([N-]S(=O)(=O)C(F)(F)F)C(F)(F)F | 1238.73 ± 1.4 | 1234.45 ± 1.4 | 1230.2 ± 1.4 | 1225.93 ± 1.3 | 1221.7 ± 1.3 | 1217.48 ± 1.3 | 1213.28 ± 1.3 | 1209.09 ± 1.3 | 1204.95 ± 1.3 | 1200.8 ± 1.3 | 1196.67 ± 1.3 | 1192.54 ± 1.3 | 1188.43 ± 1.3 | 1184.33 ± 1.2
CCCCCCCCn1cc[n+](C)c1.O=S(=O)([N-]S(=O)(=O)C(F)(F)F)C(F)(F)F | 1329.44 ± 0.54 | 1324.99 ± 0.54 | 1320.54 ± 0.53 | 1316.08 ± 0.53 | 1311.64 ± 0.53 | 1307.23 ± 0.52 | 1302.82 ± 0.52 | 1298.45 ± 0.52 | 1294.08 ± 0.51 | 1289.73 ± 0.51 | 1285.38 ± 0.51 | 1281.05 ± 0.5 | 1276.72 ± 0.5 | 1272.41 ± 0.5
CCCC[n+]1ccn(C)c1.O=S(=O)([N-]S(=O)(=O)C(F)(F)F)C(F)(F)F | 1443.95 ± 4 | 1439.13 ± 4 | 1434.32 ± 4 | 1429.51 ± 4 | 1424.73 ± 4 | 1419.98 ± 4 | 1415.23 ± 4 | 1410.5 ± 4 | 1405.78 ± 4 | 1401.09 ± 4 | 1396.41 ± 4 | 1391.74 ± 4 | 1387.07 ± 4 | 1382.43 ± 4
CCCC[n+]1ccccc1.O=S(=O)([N-]S(=O)(=O)C(F)(F)F)C(F)(F)F [1-butylpyridinium bis[(trifluoromethyl)sulfonyl]imide] | 1457.74 ± 1.9 | 1452.97 ± 1.9 | 1448.23 ± 1.9 | 1443.6 ± 1.9 | 1438.91 ± 1.9 | 1434.25 ± 1.9 | 1429.62 ± 1.9 | 1425 ± 1.9 | 1420.41 ± 1.8 | 1415.82 ± 1.8 | 1411.23 ± 1.8 | 1406.74 ± 1.8 | 1402.15 ± 1.8 | 1397.61 ± 1.8
CCCCCCCCn1cc[n+](C)c1.O=S(=O)([O-])C(F)(F)F [1-octyl-3-methylimidazolium trifluoromethanesulfonate] | 1200.83 ± 0.44 | 1197.12 ± 0.44 | 1193.39 ± 0.43 | 1189.64 ± 0.43 | 1185.9 ± 0.43 | 1182.17 ± 0.43 | 1178.44 ± 0.42 | 1174.72 ± 0.42 | 1171.02 ± 0.42 | 1167.34 ± 0.42 | 1163.66 ± 0.41 | 1159.99 ± 0.41 | 1156.33 ± 0.41 | 1152.68 ± 0.41
CCC(=O)[O-].C[NH2+]CCO [2-hydroxy-N-methylethanaminium propionate] | – | 1068.13 ± 0.99 | – | 1061.16 ± 0.97 | – | 1054.19 ± 0.96 | – | 1047.12 ± 0.94 | – | 1039.96 ± 0.93 | – | 1032.71 ± 0.92 | – | 1025.34 ± 0.9
CC(=O)[O-].C[NH2+]CCO [N-methyl-2-hydroxyethylammonium acetate] | – | 1099.6 ± 1.1 | – | 1093 ± 1 | – | 1086.4 ± 1 | – | 1079.7 ± 1 | – | 1072.9 ± 1 | – | 1066.1 ± 1 | – | 1059.1 ± 1
CCCC(=O)[O-].C[NH2+]CCO [N-methyl-2-hydroxyethylammonium butanoate] | – | 1038.03 ± 0.93 | – | 1031.04 ± 0.91 | – | 1024.03 ± 0.9 | – | 1016.9 ± 0.88 | – | 1009.68 ± 0.87 | – | 1002.38 ± 0.86 | – | 994.97 ± 0.84
